Experimental data taken from US20110281812A1, “Compounds” (priority 2009, published 2011).
Where two headings read alike, the source gives them in different places.

Columns and labels:
male BALB/cJ mice = assay: Lung neutrophilia induced by bacterial lipopolysaccharide in male BALB/cJ mice - Method B; assay type: in vivo; conditions: Mus musculus, ip, 24 h, single dose of 100 mg/kg i.p., vs LPS challenged untreated animals
Experimental: For intraperitoneal administration (i.p.) compounds were dissolved in a final concentration of 10 mg/mL. The required amount of compound was first dissolved in dimethylsulfoxide (DMSO, Sigma) and then diluted with 0.5% (w/v) methyl-cellulose so that the final DMSO concentration was 5% (v/v). The obtained solution was applied in a dose volume of 0.1 mL per 10 g of animal. Therefore, the compound dose was 100 mg/kg.
Male BALB/cJ mice (Charles River, Germany), with an average weight of ˜25 g were randomly grouped (n=8 in testing group, 10 in positive control and 6-8 in negative control). Mice received intraperitoneally (i.p.) a single dose of 100 mg/kg of test compound. Two hours after administration, 0.4 μg of LPS (from Escherichia coli serotype 0111:B4, Sigma), dissolved in sterile saline (0.9% NaCl) in a volume of 50 μL, was intranasally administered to all experimental groups except the negative control group, which received the same volume of vehicle (saline). Animals were sacrificed approximately 24 hours after application of LPS in order to obtain bronchoalveolar lavage fluid (BALF), which was used to determine absolute number of cells and the percentage of neutrophils. […] In some experiments neutrophil levels in BALF were assessed by measurement of concentration of a neutrophil-specific enzyme myeloperoxidase (MPO). Results are then expressed as percentage of decrease in myeloperoxidase (MPO) concentration measured in BALF lysates of treated animals compared to positive control (Mouse MPO ELISA Kit, Hycult biotechnology, Nederlands). For this purpose, BALF was sonicated after addition of 1.5% Triton-X-100 (Pharmacia Biotech) in Milli-Q water and frozen at −80° C. until analysed.

[1] = system: IL-6 production in LPS-stimulated murine spleenocytes; assay: Inhibition of IL-6 production in LPS-stimulated murine spleenocytes in vitro; assay type: cell-based; conditions: Mus musculus, 50 μM concentration of the compound, read-out: inhibition of interleukin-6 (IL-6) production
Experimental: Test and reference substances used in an in vitro assays were dissolved in dimethyl sulfoxide (DMSO) (Sigma Chemical Co., USA) at a concentration of 50 mM and were further diluted to test concentrations in appropriate cell culture medium.
After cervical dislocation, mouse spleens were removed using sterile dissection tools. Spleens were transferred to a pre-wetted cell strainer in a 50 mL sterile conical tube and cell suspension was made by gentle puddle. Cells were centrifuged (20 min, 300×g) and resuspended in 2 mL of sterile phosphate buffered saline (PBS) (Sigma Chemical Co., USA). Red blood cells were lysed by addition of 3 mL of sterile water and occasionally gentle shaking for 1 minute. Afterwards, the tube was filled to 40 mL with DMEM medium and centrifuged (20 min, 300×g). Cells were resuspended in DMEM supplemented with 1% FBS and seeded in a 24-well plate, 1×10^6 cells per mL medium.
Final concentrations of 50 μM, 25 μM, 12.5 μM, 6.3 μM and 3.1 μM of test compounds were prepared by diluting a 50 mM DMSO stock in Dulbecco's modified Eagle medium (DMEM) (Gibco, USA) supplemented with 1% heat inactivated fetal bovine serum (FBS) (BioWest, Ringmer, United Kingdom).
Cells were pre-incubated with the test compounds for 3 h at 37° C., in an atmosphere of 5% CO2 and 90% humidity. Afterwards, cells were stimulated with 1 μg/mL lipopolysaccharide (LPS, E. coli 0111:B4, Sigma Chemical Co., USA) and incubated overnight. Concentration of IL-6 was determined in cell supernatants by sandwich ELISA using capture and detection antibodies (R&D Systems, USA) according to the manufacturer's recommendations.
Inhibition (as percentage) was calculated using the following formula:
% inhibition=[1−(concentration of IL-6 in sample−concentration of IL-6 in negative control)/(concentration of IL-6 in positive control−concentration of IL-6 in negative control)]×100.
The positive control refers to LPS-stimulated samples that were not preincubated with the compounds.
The negative control refers to unstimulated and untreated samples.

[2] = Neutrophil, read-out: inhibition of number of neutrophils or decrease in myeloperoxidase concentration in BALF
[3] = read-out: inhibition of total cell number in BALF

Structure (SMILES) | inhibition in vivo at 100 mg/kg (male BALB/cJ mice; [2]) | inhibition in vivo at 100 mg/kg (male BALB/cJ mice; [3]) | inhibition at 50 µM [1]
CC[C@H]1OC(=O)[C@H](C)[C@@H](O[C@H]2C[C@@](C)(OC)[C@@H](O)[C@H](C)O2)[C@H](C)[C@@H](O[C@@H]2O[C@H](C)C[C@H](N(C)C)[C@H]2OCCCNC(=O)c2c(C)nn(C)c2C)[C@](C)(O)C[C@@H](C)CN(C)[C@H](C)[C@@H](O)[C@]1(C)O [Example 19, 2′-O-(3-{[(1,3,5-Trimethyl-1H-pyrazol-4-yl)carbonyl]amino}propyl)-9-deoxo-9a-methyl-9a-aza-9a-homoerythromycin A] | > 50% | > 50% | > 40%
CC[C@H]1OC(=O)[C@H](C)[C@@H](O[C@H]2C[C@@](C)(OC)[C@@H](O)[C@H](C)O2)[C@H](C)[C@@H](O[C@@H]2O[C@H](C)C[C@H](N(C)C)[C@H]2OCCCNC(=O)C2CCOCC2)[C@](C)(O)C[C@@H](C)CN(C)[C@H](C)[C@@H](O)[C@]1(C)O [Example 25, 2′-1-{3-[(Tetrahydro-2H-pyran-4-ylcarbonyl)amino]propyl}-9-deoxo-9a-methyl-9a-aza-9a-homoerythromycin A] | > 50% | > 50% | > 40%
CC[C@H]1OC(=O)[C@H](C)[C@@H](O[C@H]2C[C@@](C)(OC)[C@@H](O)[C@H](C)O2)[C@H](C)[C@@H](O[C@@H]2O[C@H](C)C[C@H](N(C)C)[C@H]2OCCCNC(=O)C2CCC2)[C@](C)(O)C[C@@H](C)CN(C)[C@H](C)[C@@H](O)[C@]1(C)O [Example 15, 2′-O-{3-[(Cyclobutylcarbonyl)amino]propyl}-9-deoxo-9a-methyl-9a-aza-9a-homoerythromycin A] | > 30% | > 30% | > 40%
CC[C@H]1OC(=O)[C@H](C)[C@@H](O[C@H]2C[C@@](C)(OC)[C@@H](O)[C@H](C)O2)[C@H](C)[C@@H](O[C@@H]2O[C@H](C)C[C@H](N(C)C)[C@H]2OCCCNC(=O)CN(C)C)[C@](C)(O)C[C@@H](C)CN(C)[C@H](C)[C@@H](O)[C@]1(C)O [Example 7, 2′-O-{3-[(N,N-Dimethylglycyl)amino]propyl}-9-deoxo-9a-methyl-9a-aza-9a-homoerythromycin A] | > 30% | > 30% | > 40%
CC[C@H]1OC(=O)[C@H](C)[C@@H](O[C@H]2C[C@@](C)(OC)[C@@H](O)[C@H](C)O2)[C@H](C)[C@@H](O[C@@H]2O[C@H](C)C[C@H](N(C)C)[C@H]2OCCCNC(=O)CCCC(=O)OC)[C@](C)(O)C[C@@H](C)CN(C)[C@H](C)[C@@H](O)[C@]1(C)O [Example 14, 2′-O-(3-{[5-(Methyloxy)-5-oxopentanoyl]amino}propyl)-9-deoxo-9a-methyl-9a-aza-9a-homoerythromycin A] | > 30% | > 30% | > 40%
CC[C@H]1OC(=O)[C@H](C)[C@@H](O[C@H]2C[C@@](C)(OC)[C@@H](O)[C@H](C)O2)[C@H](C)[C@@H](O[C@@H]2O[C@H](C)C[C@H](N(C)C)[C@H]2OCCCNC(=O)c2ccncc2)[C@](C)(O)C[C@@H](C)CN(C)[C@H](C)[C@@H](O)[C@]1(C)O [Example 6, 2′-O-{3-[(4-Pyridinylcarbonyl)amino]propyl}-9-deoxo-9a-methyl-9a-aza-9a-homoerythromycin A] |  |  | > 40%
CC[C@H]1OC(=O)[C@H](C)[C@@H](O[C@H]2C[C@@](C)(OC)[C@@H](O)[C@H](C)O2)[C@H](C)[C@@H](O[C@@H]2O[C@H](C)C[C@H](N(C)C)[C@H]2OCCCNC(=O)c2nccnc2N)[C@](C)(O)C[C@@H](C)CN(C)[C@H](C)[C@@H](O)[C@]1(C)O [Example 37, 2′-O-(3-{[(3-Amino-2-pyrazinyl)carbonyl]amino}propyl)-9-deoxo-9a-methyl-9a-aza-9a-homoerythromycin A] |  |  | > 40%
CC[C@H]1OC(=O)[C@H](C)[C@@H](O[C@H]2C[C@@](C)(OC)[C@@H](O)[C@H](C)O2)[C@H](C)[C@@H](O[C@@H]2O[C@H](C)C[C@H](N(C)C)[C@H]2OCCCNC(=O)c2cccnc2Cl)[C@](C)(O)C[C@@H](C)CN(C)[C@H](C)[C@@H](O)[C@]1(C)O [Example 34, 2′-O-(3-{[(2-Chloro-3-pyridinyl)carbonyl]amino}propyl)-9-deoxo-9a-methyl-9a-aza-9a-homoerythromycin A] |  |  | > 40%
CC[C@H]1OC(=O)[C@H](C)[C@@H](O[C@H]2C[C@@](C)(OC)[C@@H](O)[C@H](C)O2)[C@H](C)[C@@H](O[C@@H]2O[C@H](C)C[C@H](N(C)C)[C@H]2OCCCNC(=O)c2cc(C)n(C)c2C)[C@](C)(O)C[C@@H](C)CN(C)[C@H](C)[C@@H](O)[C@]1(C)O [Example 26, 2′-O-(3-{[(1,2,5-Trimethyl-1H-pyrrol-3-yl)carbonyl]amino}propyl)-9-deoxo-9a-methyl-9a-aza-9a-homoerythromycin A] |  |  | > 40%
CC[C@H]1OC(=O)[C@H](C)[C@@H](O[C@H]2C[C@@](C)(OC)[C@@H](O)[C@H](C)O2)[C@H](C)[C@@H](O[C@@H]2O[C@H](C)C[C@H](N(C)C)[C@H]2OCCCNC(=O)CN(CC)CC)[C@](C)(O)C[C@@H](C)CN(C)[C@H](C)[C@@H](O)[C@]1(C)O [Example 5, 2′-O-{3-[(N,N-Diethylglycyl)amino]propyl}-9-deoxo-9a-methyl-9a-aza-9a-homoerythromycin A] |  |  | > 40%
CC[C@H]1OC(=O)[C@H](C)[C@@H](O[C@H]2C[C@@](C)(OC)[C@@H](O)[C@H](C)O2)[C@H](C)[C@@H](O[C@@H]2O[C@H](C)C[C@H](N(C)C)[C@H]2OCCCNC(=O)[C@@H](N)CCSC)[C@](C)(O)C[C@@H](C)CN(C)[C@H](C)[C@@H](O)[C@]1(C)O [Example 12, 2′-O-[3-(L-methionylamino)propyl]-9-deoxo-9a-methyl-9a-aza-9a-homoerythromycin A] |  |  | > 40%
CC[C@H]1OC(=O)[C@H](C)[C@@H](O[C@H]2C[C@@](C)(OC)[C@@H](O)[C@H](C)O2)[C@H](C)[C@@H](O[C@@H]2O[C@H](C)C[C@H](N(C)C)[C@H]2OCCCNC(=O)c2nc(C)oc2C)[C@](C)(O)C[C@@H](C)CN(C)[C@H](C)[C@@H](O)[C@]1(C)O [Example 39, 2′-O-(3-{[(2,5-Dimethyl-1,3-oxazol-4-yl)carbonyl]amino}propyl)-9-deoxo-9a-methyl-9a-aza-9a-homoerythromycin A] |  |  | > 40%
CC[C@H]1OC(=O)[C@H](C)[C@@H](O[C@H]2C[C@@](C)(OC)[C@@H](O)[C@H](C)O2)[C@H](C)[C@@H](O[C@@H]2O[C@H](C)C[C@H](N(C)C)[C@H]2OCCCNC(=O)[C@@H](N)Cc2ccccc2)[C@](C)(O)C[C@@H](C)CN(C)[C@H](C)[C@@H](O)[C@]1(C)O [Example 10, 2′-O-[3-(L-phenylalanylamino)propyl]-9-deoxo-9a-methyl-9a-aza-9a-homoerythromycin A] |  |  | > 40%
CC[C@H]1OC(=O)[C@H](C)[C@@H](O[C@H]2C[C@@](C)(OC)[C@@H](O)[C@H](C)O2)[C@H](C)[C@@H](O[C@@H]2O[C@H](C)C[C@H](N(C)C)[C@H]2OCCCNC(=O)C(C)(C)C)[C@](C)(O)C[C@@H](C)CN(C)[C@H](C)[C@@H](O)[C@]1(C)O [Example 4, 2′-O-{3-[(2,2-Dimethylpropanoyl)amino]propyl}-9-deoxo-9a-methyl-9a-aza-9a-homoerythromycin A] |  |  | > 40%
